Several values for one entry are separate records, joined by “and”; a condition that tells them apart may be missing. Equal values may be shown once. Read-outs that look alike come from different tables or passages of the source.

One series deals with T1, hSERT (Homo sapiens, UniProt P31645).
T1 construct: expressed in transfected cells
Kind of series: Uptake inhibition assay in HEK293 cells expressing hSERT. Type of series: cell-based. The protocol:
Human embryonic kidney 293 cells (HEK293 cells) were cultivated in Dulbecco’s Modified Eagle Medium (DMEM), containing 10% heat-inactivated fetal calf serum (FCS; 100 mL/L), streptomycin (100 μg/100 mL) and penicillin ([…]). Geneticin (50 μg/mL) was added to select cells stably expressing the human isoforms of dopamine, norepinephrine and serotonin transporter (hDAT, hNET, and hSERT, respectively) as described earlier. Cell lines were maintained in culture in humidified atmosphere (37 °C, 5% CO2), and passaged when reached 80–90% confluency. Cells expressing the desired transporter were seeded the day before the experiment (40,000 cells per well) or two days before the experiments (20,000 cells per well) onto poly-D-lysine (PDL)-coated 96-well plates.
Uptake inhibition experiments were carried out as reported previously. […] Thereafter, 200 μL of Ultima Gold^TM XR scintillation cocktail (PerkinElmer, MA, USA) was added, the plates were shaken and the radioactivity accumulated into the cells determined in a Wal-lac 1450 MicroBeta TriLux Liquid Scintillation Counter & Lumi (GMI, Ramsey, MN, USA). Non- specific tritiated substrate uptake was measured in the presence of 100 μM cocaine (for hDAT and hNET) or 10 μM paroxetine (for hSERT), and subtracted from the data. […]

Series [1] can be described thus: Plasma and brain compound levels and pharmacokinetic parameters after i.p. administration. The class given is in vivo, male Sprague–Dawley rats. To be noted: rat, 10 mg/kg i.p.; for concentration at 10 h: read-out: Clast. The method, then:
The bioavailability of (S)-MK-26 after intraperitoneal (i.p.) administration in male Sprague–Dawley rats (260–351 g) was outsourced to Evotec (Toulouse CEDEX, France, Study Number VDD10431). (S)-MK-26 at dose of 10 mg/kg of body weight was i.p. administered and blood samples and brains were collected at 0.083, 0.25, 0.5, 1, 3, 7, 10, and 24 h post-administration (3 rats per time point). Plasma and brain levels of (S)-MK-26 were measured by LC-MS by a standard validated protocol defined by the contractor, and the pharmacokinetic parameters were calculated from individual concentrations by WinNonLin7.0 (Phoenix64), a non-compartmental model.

Series [2] relates to CA3-CA1 hippocampal synapses. The experiment in a line: Ex vivo hippocampal slice electrophysiology after i.p. treatment. The class given is in vivo, rat. To be noted: 10 mg/kg i.p. The method, then:
All electrophysiological experiments were conducted post mortem. Hippocampal slices (n = 12 animals/group) were prepared 1 h after the pharmacological treatments (animal experiments conducted under BMBWF-66.009/235/V/3b/2018 regulations). Animals underwent a brief sedative exposure to low CO2 inhalation and were immediately afterwards euthanized using a sharp-blade guillotining (DCAP-M, World Precision Instruments, Inc., Sarasota, FL, USA). The brains were removed and transferred to an ice-cold artificial Cerebrospinal Fluid (aCSF) solution containing (in mM): 125 NaCl, 2.5 KCl, 20 NaHCO3, 2.5 CaCl2, 1 MgCl2, 25 D-glucose, 1 NaH2PO4 (pH 7.4). Hippocampi were extracted and cut transversally with a tissue chopper (McIlwain TC752, Campden Instruments LTD., Loughborough, England) to obtain 400 µm-thick slices. Before electrophysiological assays, the slices rested for at least 1 h in a submerged recovery chamber (filled with aCSF) placed in a water bath with the temperature set at 30 °C. […]
Slice recordings were carried out in a submerged chamber receiving 3–4 mL/min of carbogenated aCSF (30 ± 2 °C). Field excitatory postsynaptic potentials (fEPSPs) were recorded using glass pipettes made of pulled capillary-glass obtained from Harvard Apparatus (Harvard Apparatus, GmbH; Hugo Sachs Elektronik, Germany). Evoked fEPSPs were recorded at the CA1 stratum-radiatum layer after electrically stimulating the collateral projections of Schaffer coming from the CA3 region as previously reported. […] Basal synaptic transmission was assessed by the generation of input/output (I/O) curves, resulting from the plotting of the field slope values (output; normalized to maximum) against the presented electrical stimulus intensity (input voltage). […] LTP was determined from the temporal progression of the fEPSP slope values (decaying phase) after LTP induction, normalized to the averaged slope values obtained before LTP-induction (base line values). The data for LTP from all slices were averaged for each animal (2–5 slices per rat were measured and averaged to yield one single value per animal). […]

Where [3] appears, read: male, Sprague-Dawley, ip, brain.
The mark [4] stands for this setting: male, Sprague-Dawley, ip, plasma.

T1 sequence (P31645 whole entry): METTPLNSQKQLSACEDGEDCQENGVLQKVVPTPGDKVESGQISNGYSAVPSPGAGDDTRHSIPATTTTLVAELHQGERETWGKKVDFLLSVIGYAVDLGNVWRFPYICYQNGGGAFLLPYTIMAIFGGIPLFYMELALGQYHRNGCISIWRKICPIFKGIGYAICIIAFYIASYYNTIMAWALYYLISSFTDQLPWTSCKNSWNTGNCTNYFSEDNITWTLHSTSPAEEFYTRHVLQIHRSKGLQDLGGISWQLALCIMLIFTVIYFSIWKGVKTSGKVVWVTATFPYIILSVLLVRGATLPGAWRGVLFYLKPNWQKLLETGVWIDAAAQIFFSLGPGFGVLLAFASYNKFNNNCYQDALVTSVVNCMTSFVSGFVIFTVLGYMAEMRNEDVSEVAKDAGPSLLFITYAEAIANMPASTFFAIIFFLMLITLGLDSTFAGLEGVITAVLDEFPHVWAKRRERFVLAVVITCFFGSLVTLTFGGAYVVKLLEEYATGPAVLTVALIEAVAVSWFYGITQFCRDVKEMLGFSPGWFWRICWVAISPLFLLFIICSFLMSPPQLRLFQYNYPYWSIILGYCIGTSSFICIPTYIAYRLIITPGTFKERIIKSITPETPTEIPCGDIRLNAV

As a reminder, the IC50 is the concentration that gives 50% inhibition. Low readings indicate greater potency in that assay, high ones weaker potency in that assay. What is called AUC(0-t) is the area under the concentration-time curve up to a stated or last time point. The Cmax is the peak of the concentration-time curve. What is called Tmax is the time at which the peak concentration occurs. Consider `[O-][S@@+](Cc1cncs1)C(c1cccc(Cl)c1)c1cccc(Cl)c1` [(S)-MK-26, (S)-5-(((B(3-chlorophenyl)methyl)sulphinyl)methyl)thiazole], for which the IC50 against hSERT is greater than 1000 µM. The “detectable up to (time)” value in series [1] (brain and plasma) is 10 h. In addition, in series [1] (brain), the Tlast is 10.0 h and the “time of maximum mean brain concentration” value is listed as 15 min. For the same compound, in series [1] (brain, at 15 min), the “maximum mean brain concentration” value worked out at 634 ± 140 ng/g. For the same compound, the Kp in series [1] (male, Sprague-Dawley, brain and plasma, ip, read-out: mean brain to plasma concentration ratio) amounted to 1.12 ± 0.19. Also, in series [1] (setting [3]), the AUC(0-t) is 1960 ng·h/mL and 5.14 µM·h; the Cmax is 634 ng/mL and 1.67 µM; the Tmax amounted to 15 min; the concentration at 10 h came out at 19.2 nM. Further, in series [1] (setting [4]), the AUC(0-t) is 1710 ng·h/mL and 4.5 µM·h; the Cmax was 624 ng/mL and 1.64 µM; the Tmax is 30 min; the concentration at 10 h came to 15.7 nM. Besides, in series [1] (plasma), the Tlast came to 10.0 h and the “time to peak mean plasma concentration” value is no more than 30 min. Besides, the “adverse effects during the pharmacokinetic study” value in series [1] is listed as “No adverse effects were observed”. Besides, the “basal synaptic transmission (I/O curves, fEPSP slopes)” value in series [2] (old rats (~20 months), slices 1 h after injection) is reported as “no effects”. In series [2] (old rats), the “Post-Tetanic Potentiation (1 min after LTP induction)” value was “comparable to those from the Koliphor/control group”. Besides, the “LTP responses (25 min after LTP induction)” value in series [2] (old rats, p = 0.0133) is listed as “significant enhancement in their LTP responses”.

The values above are taken from article PMC9312958, “A Novel and Selective Dopamine Transporter Inhibitor, (S)-MK-26, Promotes Hippocampal Synaptic Plasticity and Restores Effort-Related Motivational Dysfunctions” (Biomolecules, 2022).
